Data taken from patent US9403791B1, “Coumarin derivatives for cancer therapy” (Wellesley College, priority 2013, dated 2016).

How the values were obtained:
[1] = system: pancreatic cancer cell line PANC-1; conditions: within 24 hours; cited from earlier work
[2] = system: PANC-1 cells; test: In vitro cytotoxicity assay (WST-8 cell viability), nutrient rich media; type: cell-based
Protocol: (§1) PANC-1 cells, ranging from passage numbers 30-36 and 40-45, were seeded in 96-well plates at a density of 2.5×10^4 cells per well and incubated in fresh Dulbecco's modified Eagle's medium (DMEM, Sigma Aldrich) at 37° C. and 5% CO2 for 24 hours. Cells were then washed with PBS (Sigma Aldrich) and then subjected to the addition of either DMEM or nutrient deprived media (absence of glucose, amino acid and serum). Serially diluted coumarin compounds were added to the cells followed by a 24-hour incubation at 37° C. and 5% CO2. Cell morphology was then observed under an inverted microscope. Cells were then washed with PBS, and fresh DMEM and 10% WST-8 cell counting kit solution (Dojindo Molecular Technologies) were added to each well. The cells were incubated for 3-hours at 37° C. and 5% CO2. Absorbance values were measured using a plate reader at 450 nm, and cell viability was calculated using the following equation % Cell viability=[{Abstest sample−Absblank}/{Abscontrol−Absblank}]*100. The cell viability of compounds 2, 3 and 4 is seen in FIG. 1a.
The assay detailed above was performed additional times and results were obtained. Briefly, PANC-1 cells, ranging from passage numbers 30-36 and 40-45, were seeded in 96-well plates at a density of 2.5×10^4 cells per well density and incubated in fresh Dulbecco's modified Eagle's medium (DMEM, Sigma Aldrich) at 37° C., 5% CO2 for 24 hours. Cells were then washed with PBS (Sigma Aldrich) and then subjected to the addition of either nutrient rich media (NRM) or nutrient deprived media (NDM). […] Absorbance values were measured with a plate reader at 450 nm, and cell viability was calculated using the equation % Cell viability=[{Abstest sample−Absblank}/{Abscontrol−Absblank}]*100. The cell viability of compounds 2, 3 and 4 (e.g., viability of cells following treatment with compounds 2, 3, or 4 was assessed) is shown in FIG. 1b, and is consistent with the results shown in FIG. 1a. LC50 values were determined and are as follows.

[3] = system: PANC-1 cells; test: In vitro cytotoxicity assay (WST-8 cell viability), nutrient deprived media; type: cell-based; conditions: for CC50: Homo sapiens, PANC-1 cells, 24-hour incubation, WST-8 cell counting kit, nutrient deprived media (medium not restated at table), read-out: LC50 (the source's name)
Protocol: as §1
The assay detailed above was performed additional times and results were obtained. Briefly, PANC-1 cells, ranging from passage numbers 30-36 and 40-45, were seeded in 96-well plates at a density of 2.5×10^4 cells per well density and incubated in fresh Dulbecco's modified Eagle's medium (DMEM, Sigma Aldrich) at 37° C., 5% CO2 for 24 hours. Cells were then washed with PBS (Sigma Aldrich) and then subjected to the addition of either nutrient rich media (NRM) or nutrient deprived media (NDM). Serially diluted coumarin compounds (5.5% DMSO in NDM) were added to the cells followed by a 24-hour incubation at 37° C., 5% CO2. Cell morphology was then observed under an inverted microscope. Cells were then washed with PBS, and fresh DMEM and 10% WST-8 cell counting kit (Dojindo Molecular Technologies) were added for a 3-hour incubation at 37° C., 5% CO2. Absorbance values were measured with a plate reader at 450 nm, and cell viability was calculated using the equation % Cell viability=[{Abstest sample−Absblank}/{Abscontrol−Absblank}]*100. The cell viability of compounds 2, 3 and 4 (e.g., viability of cells following treatment with compounds 2, 3, or 4 was assessed) is shown in FIG. 1b, and is consistent with the results shown in FIG. 1a. LC50 values were determined and are as follows.

[4] = system: PANC-1 cells; test: Morphological change observation under inverted microscope, nutrient-deprived conditions; type: cell-based; conditions: 6.25 μM, 12.5 μM, and 25 μM, 24 hour incubation
Protocol: as §1, with “Cells were then washed with PBS, and fresh DMEM and 10% WST-8 cell counting kit solution (Dojindo Molecular Technologies) were added to each well. The cells were incubated for 3-hours at 37° C. and 5% CO2.” left out, “The cell viability of compounds 2, 3 and 4 is seen in FIG. 1a.” left out
The assay detailed above was performed additional times and results were obtained. […] Absorbance values were measured with a plate reader at 450 nm, and cell viability was calculated using the equation % Cell viability=[{Abstest sample−Absblank}/{Abscontrol−Absblank}]*100. The cell viability of compounds 2, 3 and 4 (e.g., viability of cells following treatment with compounds 2, 3, or 4 was assessed) is shown in FIG. 1b, and is consistent with the results shown in FIG. 1a. LC50 values were determined and are as follows.

Structure (SMILES) | cytotoxicity against PANC-1 under nutrient starvation conditions [1] | cytotoxic activity when cells cultured under nutrient-rich conditions [2] | CC50 [3] | cytotoxicity towards PANC-1 cells under nutrient starvation conditions [3] | morphological changes to PANC-1 cells [4]
CC(C)(OC(=O)C=Cc1ccc(O)cc1)C1Cc2c(ccc3ccc(=O)oc23)O1 (centres unmarked) [Angelmarin, 11-O-(p-hydroxy-cinnamoyl) columbianetin] | exhibit cytotoxicity |  |  |  | 
CC(C)=CCOc1ccc2oc(=O)ccc2c1 [Compound 2, 6-((3-methylbut-2-en-1-yl)oxy)-2H-chromen-2-one] |  | no significant cytotoxic activity | > 100 µM | preferential cytotoxicity | 
CC(C)=CCC/C(C)=C/COc1ccc2oc(=O)ccc2c1 [Compound 3, (E)-6-((3,7-dimethylocta-2,6-dien-1-yl)oxy)-2H-chromen-2-one] |  | no significant cytotoxic activity | 12 µM | preferential cytotoxicity | 
CC(C)=CCC/C(C)=C/CC/C(C)=C/COc1ccc2oc(=O)ccc2c1 [Compound 4, 6-(((2E,6E)-3,7,11-trimethyldodeca-2,6,10-trien-1-yl)oxy)-2H-chromen-2-one] |  | no significant cytotoxic activity | 4 µM | preferential cytotoxicity | induced apoptosis-like morphological changes
